Measurements taken from patent US10532052B2, “Combination of a 6-oxo-1,6-dihydro-pyridazine derivative having anti-cancer activity with an EGFR inhibitor” (Merck Patent GmbH, priority 2014, dated 2020).

Assays:
[1] = system: human DFCI081 NSCLC xenograft; assay: human DFCI081 patient derived NSCLC xenograft (PDX) model; assay type: in vivo; conditions: for tumor response class / median tumor volume (TV) change: female NCr nude mice; for tumor response class: 100 mg/kg each agent orally daily up to 18 days; for median tumor volume (TV) change: s.c. DFCI081 tumors, 100 mg/kg orally daily up to 18 days
Method: Method: Female NCr nude mice (7 weeks old) where subcutaneously injected with human DFCI081 tumor cells and were divided into treatment groups (10 animals per group) after the tumors were established. […] Median tumor volume (TV) change in % were calculated and statistical analysis done with two way-RM ANOVA.

[2] = system: human NSCLC HCC827-GR-T790M xenograft; assay type: in vivo; conditions: female NCr nude mice, 100 mg/kg each agent orally daily, day 14
Description: Background: The human NSCLC HCC827-GR-T790M is a EGFR del 19 mutant and c-Met amplified lung xenograft model which exogenous expression of the EGFR T790M resistant mutation.
Method: Female NCr nude mice (7 weeks old) where subcutaneously injected with human HCC827-GR-T790M tumor cells and were divided into treatment groups (10 animals per group) after the tumors were established. […] Median tumor volume (TV) change in % were calculated at day 14, where the vehicle group was terminated and statistical analysis done with two way-RM ANOVA.

[3] = system: human DFCI081 NSCLC xenograft; conditions: background; due to the activated c-Met pathway; cited from earlier work

Row | Structure (SMILES) | day at which complete tumor regression/response was observed in all mice ([1]; 100 mg/kg each agent orally daily) | tumor response class [1] | median tumor volume (TV) change [1] | tumor response class [2] | median tumor volume change ([2]; s.c. HCC827-GR-T790M tumors) | resistance of the model to EGFR inhibitor [3]
1 | CN1CCC(COc2cnc(-c3cccc(Cn4nc(-c5cccc(C#N)c5)ccc4=O)c3)nc2)CC1.Cl.O [3-(1-{3-[5-(1-Methyl-piperidin-4-ylmethoxy)-pyrimidin-2-yl]-benzyl}-6-oxo-1,6-dihydro-pyridazin-3-yl)-benzonitrile hydrochloride hydrate] | 15 days | tumor regression | −100% | – | – | –
2 | C=CC(=O)Nc1cccc(Nc2nc(Nc3ccc(N4CCN(C(C)=O)CC4)cc3OC)ncc2C(F)(F)F)c1 [N-[3-[[2-[4-(4-acetylpiperazin-1-yl)-2-methoxy-anilino]-5-(trifluoromethyl)-pyrimidin-4-yl]amino]phenyl]prop-2-enamide] | – | tumor progressed | 700% | tumors progressed | 81% | –
3 | C#Cc1cccc(Nc2ncnc3cc(OCCOC)c(OCCOC)cc23)c1 [erlotinib] | – | – | – | – | – | resistant
